In brackets after ≈: the same amount, converted by molar mass. Where two headings read alike, the source gives them in different places.

Data set [1] relates to Pseudomonas aeruginosa ATCC 27853. Description: microbe, parasite or virus in culture. The following applies: ATCC27853, 24 h.
The subject of data set [2] is MDR P. aeruginosa clinical isolate No.1. Description: microbe, parasite or virus in culture. The following applies: Pseudomonas aeruginosa.
Data set [3] concerns MDR P. aeruginosa clinical isolate No.2. As to the kind of experiment: microbe, parasite or virus in culture. The following applies: Pseudomonas aeruginosa.
For data set [4], the system named is MDR P. aeruginosa clinical isolate No.3. As to the kind of experiment: microbe, parasite or virus in culture. The following applies: Pseudomonas aeruginosa.
Data set [5] deals with MDR P. aeruginosa clinical isolate No.4. Description: microbe, parasite or virus in culture. As to conditions: Pseudomonas aeruginosa.
Data set [6] deals with MDR P. aeruginosa clinical isolate No.5. As to the kind of experiment: microbe, parasite or virus in culture. The following applies: Pseudomonas aeruginosa.
Data set [7] relates to MDR P. aeruginosa clinical isolate No.6. Description: microbe, parasite or virus in culture. The following applies: Pseudomonas aeruginosa.
Data set [8] relates to MDR P. aeruginosa clinical isolate No.7. As to the kind of experiment: microbe, parasite or virus in culture. The following applies: Pseudomonas aeruginosa.
In data set [9] the test system is MDR P. aeruginosa clinical isolate No.8. Description: microbe, parasite or virus in culture. As to conditions: Pseudomonas aeruginosa.
Data set [10] deals with MDR P. aeruginosa clinical isolate No.9. Description: microbe, parasite or virus in culture. As to conditions: Pseudomonas aeruginosa.
Data set [11] concerns MDR P. aeruginosa clinical isolate No.10. As to the kind of experiment: microbe, parasite or virus in culture. The following applies: Pseudomonas aeruginosa.
Data set [12] has as its system MDR P. aeruginosa clinical isolate No.11. As to the kind of experiment: microbe, parasite or virus in culture. As to conditions: Pseudomonas aeruginosa.
Data set [13] has as its system MDR P. aeruginosa clinical isolate No.12. As to the kind of experiment: microbe, parasite or virus in culture. As to conditions: Pseudomonas aeruginosa.
Data set [14] concerns MDR P. aeruginosa clinical isolate No.13. As to the kind of experiment: microbe, parasite or virus in culture. The following applies: Pseudomonas aeruginosa.
For data set [15], the system named is MDR P. aeruginosa clinical isolate No.14. Description: microbe, parasite or virus in culture. As to conditions: Pseudomonas aeruginosa.
For data set [16], the system named is human red blood cells (hRBCs). Description: Hemolytic activity, hemoglobin release. As to conditions: 2% hRBC, 1 h, 37 °C. The method, then: Hemolytic activity of the peptides was assayed against human red blood cells (hRBCs) by measuring the amount of hemoglobin released after treatment. The hRBCs, freshly collected from a healthy volunteer in polycarbonate tubes containing heparin, were washed three times in sterile phosphate buffered saline (PBS) and centrifuged at 2,000 × g for 5 min or until the supernatant became clear. […] After 1 h of incubation at 37 °C, intact hRBCs were pelleted by centrifugation at 2,000 × g for 10 min. The supernatant was transferred to a new 96-well plate and the release of hemoglobin was monitored by measurement of absorbance at 405 nm using a Multiskan FC microplate reader. The hRBCs in PBS only (ODBlank) and in 0.1% Triton X-100 (ODTriton X-100) were employed as negative (0% hemolysis) and positive (100% hemolysis) controls, respectively. The percentage of hemolysis was calculated according to the following equation: %Hemolysis=(ODSample−ABlank)/(ODTritonX−100−ODBlank)×100

For data set [17], the system named is all Gram-negative strains. As to the kind of experiment: Mean MIC and therapeutic index, Gram-negative strains. It is filed as cell-based. As to conditions: 7 Gram-negative strains of Table 3. The method, then: (§1) The antimicrobial activity of the peptides was determined against both Gram-positive and -negative bacteria including 14 MDR P. aeruginosa clinical isolates from Bhumibol Adulyadej Hospital (Tables 1 and 3). The minimal inhibitory concentration (MIC) of each peptide was measured according to a modification of the National Committee for Clinical Laboratory Standards (NCCLS) broth microdilution method as previously described. Briefly, bacterial cells in mid-log phase were cultured in Müeller-Hinton broth (MHB) and then diluted to 10^7 CFU/ml. […] Plates were incubated at 37 °C for 24 h, and MICs were defined as the lowest concentration of peptide that prevented visible turbidity. Cultures without peptides and uninoculated MHB were employed as positive and negative controls, respectively. Colony count assays were performed to determine the minimal bactericidal concentrations (MBCs) for determination of time-killing activity. As previously described, a 50 μl aliquot from each non-turbid well identified in the MIC determination experiment was spread on agar plates.
(§2) To further evaluate the global activity of these peptides, the geometric mean (GM) MIC and the therapeutic index (TI) of each were calculated (Table 3). The TI, a widely used parameter to evaluate cell selectivity and specificity of antimicrobial agents, was calculated as the ratio of MHC (the concentration that causes 10% hemolysis) to the geometric mean of MICs[22]. Higher TIs indicated greater cell selectivity and specificity.

Data set [18] concerns all Gram-positive strains. Description: Mean MIC and therapeutic index, Gram-positive strains. The following applies: 5 Gram-positive strains of Table 3. It is filed as cell-based. Here is the method: as §1, §2
Data set [19] has as its system P. aeruginosa ATCC 27853. As to the kind of experiment: Membrane permeability (PI) and depolarization (BOX), flow cytometry. The data set is classed as cell-based, Pseudomonas aeruginosa. As to conditions: 1 × MIC, 30 min; for permeabilized and depolarized cells (BOX+PI+): 37 °C, triplicate. The method, then: Their outer and inner membranes provide important protection for Gram-negative bacteria. To assess membrane permeability and depolarization induced by PA-13, the DNA intercalating dyes propidium iodide (PI) and bis-(1,3-dibutylbarbituric acid) trimethine oxonol (BOX) were used as previously described. The fluorescence conferred by these dyes is generally associated with the loss of membrane integrity and potential, respectively.
Briefly, P. aeruginosa ATCC 27853 was cultured to mid-logarithmic phase and harvested by centrifugation at 2,000 × g for 5 min. The bacterial cells were washed thrice with PBS and diluted to 10^7 CFU/ml in 50 ml of PBS. […] Bacterial pellets were harvested and washed with PBS by centrifugation at 10,000 × g for 10 min. […] Untreated bacterial cells (no peptide) served as a negative control, whereas bacterial cells treated with melittin served as a positive control. Data was recorded using a flow cytometer (CytoFlex, Beckman Coulter) at a laser excitation wavelength of 488 nm. Forward scatter (FS), side scatter (SS), green fluorescence (530/30 nm) from BOX and red fluorescence (585/42 nm) emitted by PI were collected using logarithmic scales. 25,000 cells, defined according to their scatter parameters, were counted in each sample. The experiments were performed in triplicate and the data was analyzed using Kaluza software.
Background: Flow cytometry measures light scatter and fluorescence of single cells or particles in a stream.

Data set [20] has as its system Pseudomonas aeruginosa ATCC 27853. As to conditions: P. aeruginosa ATCC 27853; MHB, 10^7 CFU/ml, 37 °C, 24 h, no visible turbidity.
In data set [21] the test system is Escherichia coli O157:H7 MT strain. The following applies: E. coli O157:H7 MT strain; MHB, 37 °C, 24 h.
The test system of data set [22] is Shigella sonnei ATCC 11060. As to conditions: MHB, 37 °C, 24 h.
Data set [23] concerns Salmonella Typhimurium ATCC 13311. As to conditions: Salmonella Typhimurium ATCC 13311; MHB, 37 °C, 24 h.
Data set [24] relates to Vibrio cholera O1 Inaba DMST 16261. As to conditions: MHB, 37 °C, 24 h.
Data set [25] deals with Acinetobacter baumannii MT strain. The following applies: Acinetobacter baumannii MT strain; MHB, 37 °C, 24 h.
Data set [26] has as its system Staphylococcus epidermidis ATCC 12228. As to conditions: S. epidermidis ATCC 12228; MHB, 37 °C, 24 h.
Data set [27] has as its system Bacillus cereus ATCC 11778. As to conditions: Bacillus cereus ATCC 11778; MHB, 37 °C, 24 h.
The test system of data set [28] is Enterococcus faecalis ATCC 29212. As to conditions: Enterococcus faecalis ATCC 29212; MHB, 37 °C, 24 h.
Data set [29] concerns Listeria monocytogenes 10403 s. The following applies: Listeria monocytogenes 10403 s; MHB, 37 °C, 24 h.
Data set [30] concerns L929 mouse fibroblast cells. As to the kind of experiment: Cytotoxicity, MTT viability assay. The following applies: 250 µg/ml, 24 h, triplicate. A general note: Tetrazolium dyes change colour on reduction, which living cells bring about.

As for `C[C@@H](O)[C@H]1C(=O)N2C(C(=O)O)=C(SCCN=CN)C[C@H]12` [Imipenem], the MIC in [1] was not above 0.98 µg/mL; in data set [2], more than 125 µg/mL; in data set [3] it was more than 125 µg/mL; in data set [4], more than 125 µg/mL; in data set [5], more than 125 µg/mL; in data set [6] it was 125 µg/mL (≈ 418 µM). The MIC is more than 125 µg/mL in data set [7]; more than 125 µg/mL in data set [8]; 125 µg/mL (≈ 418 µM) in data set [9]; more than 125 µg/mL in data set [10]; more than 125 µg/mL in data set [11]; more than 125 µg/mL in data set [12]. Further, the MIC is 125 µg/mL (≈ 418 µM) in [13], 62.5 µg/mL (≈ 209 µM) in data set [14] and more than 125 µg/mL in data set [15].
Take `CC[C@H](C)[C@H](NC(=O)CN)C(=O)NCC(=O)N[C@@H](C)C(=O)N[C@H](C(=O)N[C@@H](CC(C)C)C(=O)N[C@@H](CCCCN)C(=O)N[C@H](C(=O)N[C@@H](CC(C)C)C(=O)N[C@H](C(=O)N[C@H](C(=O)NCC(=O)N[C@@H](CC(C)C)C(=O)N1CCC[C@H]1C(=O)N[C@@H](C)C(=O)N[C@@H](CC(C)C)C(=O)N[C@H](C(=O)N[C@@H](CO)C(=O)N[C@@H](Cc1c[nH]c2ccccc12)C(=O)N[C@H](C(=O)N[C@@H](CCCCN)C(=O)N[C@@H](CCCNC(=N)N)C(=O)N[C@@H](CCCCN)C(=O)N[C@@H](CCCNC(=N)N)C(=O)N[C@@H](CCC(N)=O)C(=O)N[C@@H](CCC(N)=O)C(N)=O)[C@@H](C)CC)[C@@H](C)CC)[C@@H](C)O)[C@@H](C)O)C(C)C)C(C)C` [Melittin, reference compound]: the “concentration at which hemolysis was complete (100%)” value in data set [16] worked out at 1950 ng/mL. In addition, the “GM (Gr.− strains): geometric mean of MIC values from all Gram-negative strains” value in data set [17] was 10.60 µg/mL. For the same molecule, in [18], the “GM (Gr.+ strains): geometric mean of MIC values from all Gram-positive strains” value is 3.52 µg/mL. Also, in data set [19], the “cell population BOX+PI-” value turned out to be 2.70%. Besides, the “cell population BOX-PI+” value in [19] stood at 0.12%. Also, the “cell population BOX-PI-” value in data set [19] came out at 3.14%. In addition, the “permeabilized and depolarized cells (BOX+PI+)” value was 94.04% in data set [19] and 94.04 ± 3.25% in [19] (listed as melittin). Besides, the MIC worked out at 15.63 µg/mL (≈ 5.49 µM) in [20]; 7.81 µg/mL (≈ 2.74 µM) in data set [21]; 3.91 µg/mL (≈ 1.37 µM) in data set [22]; 3.91 µg/mL (≈ 1.37 µM) in [23]; 3.91 µg/mL (≈ 1.37 µM) in data set [24]; 7.81 µg/mL (≈ 2.74 µM) in data set [25]. Moreover, the MIC in [26] came to 3.91 µg/mL (≈ 1.37 µM); in data set [27], 3.91 µg/mL (≈ 1.37 µM); in [28], 1.95 µg/mL (≈ 0.685 µM); in data set [29], 3.91 µg/mL (≈ 1.37 µM). Besides, the “L929 cell survival at the maximum concentration” value in data set [30] was “less than 1%”.

The values are drawn from article PMC7272617 (Scientific Reports, 2020).
